From PubChem BioAssay (NCI)
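Exposure lasted 48 hours, with cells grown in 96-well plates and compounds tested at five concentrations. The concentration for full growth arrest is given as TGI.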

Legend:
Assay in all cases: NCI anticancer screen, dose series, 48 h
CCRF-CEM leukemia = tested on: CCRF-CEM leukemia
HCC-2998 colon = tested on: HCC-2998 colon
HCT-15 colon = tested on: HCT-15 colon
HL-60(TB) leukemia = tested on: HL-60(TB) leukemia
KM12 colon = tested on: KM12 colon
MDA-MB-231 breast = tested on: MDA-MB-231 breast
MDA-MB-435 = tested on: MDA-MB-435
NCI/ADR-RES ovarian = tested on: NCI/ADR-RES ovarian
OVCAR-4 ovarian = tested on: OVCAR-4 ovarian
OVCAR-5 ovarian = tested on: OVCAR-5 ovarian
OVCAR-8 ovarian = tested on: OVCAR-8 ovarian
PC-3 prostate = tested on: PC-3 prostate
RXF 393 renal = tested on: RXF 393 renal
SF-268 CNS = tested on: SF-268 CNS
SK-MEL-5 melanoma = tested on: SK-MEL-5 melanoma
SNB-75 CNS = tested on: SNB-75 CNS
T-47D breast = tested on: T-47D breast
U251 CNS = tested on: U251 CNS
UO-31 renal = tested on: UO-31 renal
NCI-H522 lung = tested on: NCI-H522 lung

| Compound | TGI (CCRF-CEM leukemia) | TGI (HCC-2998 colon) | TGI (HCT-15 colon) | TGI (HL-60(TB) leukemia) | TGI (KM12 colon) | TGI (MDA-MB-231 breast) | TGI (MDA-MB-435) | TGI (NCI/ADR-RES ovarian) | TGI (OVCAR-4 ovarian) | TGI (OVCAR-5 ovarian) | TGI (OVCAR-8 ovarian) | TGI (PC-3 prostate) | TGI (RXF 393 renal) | TGI (SF-268 CNS) | TGI (SK-MEL-5 melanoma) | TGI (SNB-75 CNS) | TGI (T-47D breast) | TGI (U251 CNS) | TGI (UO-31 renal) | TGI (NCI-H522 lung) |
| --- | --- | --- | --- | --- | --- | --- | --- | --- | --- | --- | --- | --- | --- | --- | --- | --- | --- | --- | --- | --- |
| Cc1ccc(/C=N/Nc2cc(C)c3ccccc3n2)s1 | > 100 µM | 33.8 µM | 25.6 µM | > 100 µM | 38.5 µM | 19.9 µM | > 100 µM | 90.6 µM | > 100 µM | 37.4 µM | > 100 µM | 31.1 µM | 75.5 µM | > 100 µM | 75.2 µM | > 100 µM | > 100 µM | 43 µM | > 100 µM |  |
| Cc1cc(C)c(S(=O)(=O)N(CCCCCCN)OCCCN)c(C)c1 | 36.9 µM | 32.6 µM | 32.5 µM | 33.3 µM | 32.1 µM | 24.4 µM | > 100 µM | > 100 µM | 46.2 µM | 40.1 µM | 27.9 µM | 28.1 µM |  | 36.3 µM | 37.6 µM | 22.8 µM | 37.4 µM | 32.6 µM | 43.2 µM | 27.3 µM |
| CC(=O)/C=C(/C=N/O)c1ccccc1 | > 100 µM | > 100 µM | > 100 µM |  | > 100 µM | > 100 µM | > 100 µM | > 100 µM | > 100 µM | > 100 µM | > 100 µM | > 100 µM |  | > 100 µM | > 100 µM | > 100 µM | > 100 µM | > 100 µM | > 100 µM | > 100 µM |
| COc1ccc(/C=N/NC(=O)c2ccccc2Nc2ccccc2C(=O)N/N=C/c2ccc(OC)cc2)cc1 | > 100 µM | > 100 µM | > 100 µM |  | > 100 µM | > 100 µM | > 100 µM | > 100 µM | > 100 µM | > 100 µM | > 100 µM | > 100 µM | > 100 µM | > 100 µM | > 100 µM | > 100 µM | > 100 µM | > 100 µM | > 100 µM |  |
| Cc1nc2c(=O)n(C)c(=O)nc-2n(CCO)c1C | > 100 µM | > 100 µM | > 100 µM |  | > 100 µM | > 100 µM | > 100 µM | > 100 µM | > 100 µM | > 100 µM | > 100 µM | > 100 µM | > 100 µM | > 100 µM | > 100 µM | > 100 µM | > 100 µM | > 100 µM | > 100 µM | > 100 µM |
| CN(C(=O)[C@@H](NC(=O)OC(C)(C)C)c1ccccc1)[C@H]1CCCC[C@@H]1N1CCCC1 |  |  | > 100 µM | > 100 µM | > 100 µM | > 100 µM | > 100 µM | > 100 µM | > 100 µM | > 100 µM | > 100 µM | > 100 µM |  | > 100 µM | > 100 µM |  | > 100 µM | > 100 µM | > 100 µM | > 100 µM |
| CCCCCCCC/C=C\CCCCCCCC(=O)OC[C@]1(CO)CCC(=O)O1 | > 100 µM | > 100 µM | > 100 µM |  | > 100 µM | > 100 µM | > 100 µM | > 100 µM | > 100 µM | > 100 µM | > 100 µM | > 100 µM | > 100 µM | > 100 µM | > 100 µM | > 100 µM | > 100 µM | > 100 µM | > 100 µM | > 100 µM |
| CCNc1nc(N)c(C(=O)c2cccs2)s1 |  | > 100 µM | > 100 µM | 21.9 µM | 46.7 µM | > 100 µM | 82.6 µM | > 100 µM | 77.6 µM | > 100 µM | > 100 µM | > 100 µM | 20 µM | > 100 µM | 44.8 µM | 36.6 µM | 84.3 µM | > 100 µM | > 100 µM | > 100 µM |
| c1ccc(CN2CCCN3CCN(CCCN(Cc4ccccc4)CC3)CC2)cc1 | > 100 µM |  | > 100 µM | 82.3 µM | > 100 µM | > 100 µM | > 100 µM | > 100 µM | > 100 µM | > 100 µM | > 100 µM | > 100 µM | > 100 µM | > 100 µM | 36.1 µM | > 100 µM | > 100 µM | > 100 µM | > 100 µM | > 100 µM |
| CCOC(=O)/C(=C\c1ccnc2ccccc12)P(=O)(OCC)OCC | 1.96 µM | 26.7 µM | 3.3 µM |  | 13.9 µM | 8.84 µM | 9.95 µM | 5.9 µM | 6.61 µM | 6.78 µM | 7.96 µM | 16.8 µM | 4.41 µM | 6.3 µM | 10.7 µM | 12 µM | 9.11 µM | 9.51 µM |  | 3.18 µM |
| CCCC(=O)OCC1(CO)C/C(=C/CC(C(C)C)C(C)C)C(=O)O1 (configuration not stated) | > 100 µM | > 100 µM | > 100 µM |  | > 100 µM | > 100 µM | > 100 µM | > 100 µM | > 100 µM | > 100 µM | > 100 µM | > 100 µM | > 100 µM | > 100 µM | > 100 µM | > 100 µM | > 100 µM | > 100 µM | > 100 µM | > 100 µM |
| COc1cc(/C=C2\N=C(c3ccccc3)N(c3nc4cc(C)c(C)cc4s3)C2=O)cc(OC)c1OC | 21.8 µM | 45.7 µM | > 100 µM | 39.7 µM | 71.2 µM | > 100 µM | 54.9 µM | > 100 µM | > 100 µM | 84.2 µM | 47.6 µM | > 100 µM | 65.2 µM | > 100 µM | > 100 µM | 60 µM | > 100 µM | 66.1 µM | > 100 µM |  |
